Test results as given in ChEMBL document CHEMBL4616645, “Dysidealactams and Dysidealactones: Sesquiterpene Glycinyl-Lactams, Imides, and Lactones from a Dysidea sp. Marine Sponge Collected in Southern Australia” (J Nat Prod, 2020).
Calls of active or inactive are those of the source.

How the values were obtained:
[1] = test system: Escherichia coli; experiment: Antibacterial activity against Escherichia coli ATCC 11775 assessed as reduction In microbial growth up to 30 uM after 24 hrs by spectrophotometric method; format: functional, organism-based
[2] = test system: Bacillus subtilis; experiment: Antibacterial activity against Bacillus subtilis ATCC 6051 assessed as reduction In microbial growth up to 30 uM after 24 hrs by spectrophotometric method; format: functional, organism-based
[3] = test system: Candida albicans; experiment: Antifungal activity against Candida albicans ATCC 10231 assessed as reduction In microbial growth up to 30 uM after 24 hrs by spectrophotometric method; format: functional, organism-based
[4] = test system: SW-620; experiment: Cytotoxicity against human SW620 cells assessed as reduction in cell viability up to 30 uM after 48 hrs by MTT assay; format: functional, cell-based
[5] = test system: NCI-H460; experiment: Cytotoxicity against human NCI-H460 cells assessed as reduction in cell viability up to 30 uM uM after 48 hrs by MTT assay; format: functional, cell-based

Measured: Activity

CC1(C)CCC[C@]2(C)C3=C(CC[C@@H]12)C(=O)N(CC(=O)O)[C@@H]3O
inactive: all assays above

CCO[C@@H]1C2=C(CC[C@H]3C(C)(C)CCC[C@]23C)C(=O)N1CC(=O)O
inactive: all assays above

CCO[C@H]1C2=C(CC[C@H]3C(C)(C)CCC[C@]23C)C(=O)N1CC(=O)O
inactive: all assays above

CC1(C)CCC[C@]2(C)C3=C(CC[C@@H]12)C(=O)NC3=O
inactive: all assays above

CC1(C)CCC[C@]2(C)C3=C(CC[C@@H]12)CN(CC(=O)O)C3=O
inactive: all assays above

CC1(C)CCC[C@]2(C)C3=C(CC[C@@H]12)C(O)OC3=O (stereo not given in full)
inactive: all assays above

CC1(C)CCC[C@]2(C)C3=C(CC[C@@H]12)C(=O)OC3O (stereo not given in full)
inactive: all assays above

CC1(C)CCC[C@]2(C)C3=C(CC[C@@H]12)C(=O)N(CC(=O)O)[C@H]3O
inactive: all assays above

CC1(C)CCC[C@]2(C)C3=C(CC[C@@H]12)C(=O)N(CC(=O)O)C3
inactive: all assays above

CC1(C)CCC[C@]2(C)C3=C(CC[C@@H]12)C(=O)N(CC(=O)O)C3=O
inactive: all assays above
